Assay results taken from patent US20140045937A1, “METHODS OF TREATING POLYCYSTIC OVARIAN SYNDROME USING CHLOROGENIC ACID” (Oculus Innovative Sciences, Inc., priority 2012, published 2014).

Columns and labels:
[1] = tested on: PCOS and/or anovulation in female patients; experiment: GLUCOREIN beverage (chlorogenic acid and L-cysteine) in anovulatory female patients with PCOS symptoms attempting to become pregnant; type: in vivo, human; details: CLOMID added to GLUCOREIN regimen after three months; three patients with body mass index over 35; read after four months of treatment
Protocol: Ten female patients, between the ages of 25 and 37, each anovulatory, were evaluated. […] Chronic anovulation is a common cause of infertility. These patients were also attempting to become pregnant and presented with multiple symptoms of PCOS. Their diets were supplemented with GLUCOREIN medical food beverage (a powdered solid including the components set forth in Table 1 mixed in 8 ounces of water). Per instructions for use, the patients each consumed one eight-ounce serving of the GLUCOREIN beverage each day, typically in the morning hours.
After four months of treatment, with all ten patients continuing with the protocol, the results were as follows: […]

[2] = tested on: PCOS; details: variety of clinical trials, literature; cited from earlier work

| Structure (SMILES) | patients who tested positive for ovulation [1] | treatment or prevention of PCOS [2] |
| --- | --- | --- |
| CCN(CC)CCOc1ccc(C(=C(Cl)c2ccccc2)c2ccccc2)cc1 [CLOMID, clomiphene] | none | – |
| CC(=O)N[C@@H](CS)C(=O)O [NAC, N-acetyl-L-cysteine] | – | shown to treat or prevent PCOS |
